Measured values from PubChem BioAssay (NCI).
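Grown in 96-well plates, cells were treated for 48 hours with each compound at five concentrations. Insufficient inhibition: endpoint recorded as highest concentration tested. At the TGI there is no net growth.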

Legend:
Test in all cases: DTP human tumour cell line panel, 48 h
RPMI-8226 leukemia = system: RPMI-8226 leukemia
IGROV1 ovarian = system: IGROV1 ovarian
SNB-75 CNS = system: SNB-75 CNS
SN12C renal = system: SN12C renal
UACC-62 melanoma = system: UACC-62 melanoma
KM12 colon = system: KM12 colon
LOX IMVI melanoma = system: LOX IMVI melanoma
A549 NSCLC = system: A549 NSCLC
MALME-3M melanoma = system: MALME-3M melanoma
HT29 colon = system: HT29 colon
SW-620 colon = system: SW-620 colon
CCRF-CEM leukemia = system: CCRF-CEM leukemia
HL-60(TB) leukemia = system: HL-60(TB) leukemia
HCT-15 colon = system: HCT-15 colon
SK-MEL-5 melanoma = system: SK-MEL-5 melanoma
OVCAR-4 ovarian = system: OVCAR-4 ovarian
OVCAR-3 ovarian = system: OVCAR-3 ovarian
K-562 leukemia = system: K-562 leukemia
TK-10 renal = system: TK-10 renal

## N=[N+]=CC(=O)CCC(NC(=O)C(CCC(=O)C=[N+]=N)NC(=O)CCC(N)C(=O)O)C(=O)O (stereo not given)
RPMI-8226 leukemia
  TGI: > 100 µM
IGROV1 ovarian
  TGI: > 100 µM
SNB-75 CNS
  TGI: > 100 µM
SN12C renal
  TGI: > 100 µM
UACC-62 melanoma
  TGI: > 100 µM
KM12 colon
  TGI: > 31.6 µM
LOX IMVI melanoma
  TGI: > 100 µM
A549 NSCLC
  TGI: > 100 µM
MALME-3M melanoma
  TGI: > 100 µM
HT29 colon
  TGI: > 100 µM
SW-620 colon
  TGI: > 100 µM
CCRF-CEM leukemia
  TGI: > 100 µM
HL-60(TB) leukemia
  TGI: > 100 µM
HCT-15 colon
  TGI: > 100 µM
SK-MEL-5 melanoma
  TGI: > 100 µM
OVCAR-4 ovarian
  TGI: > 100 µM
OVCAR-3 ovarian
  TGI: > 100 µM
K-562 leukemia
  TGI: > 100 µM

## C[n+]1c2ccccc2c(NC(CS)C(=O)O)c2ccccc21 (stereo not given)
RPMI-8226 leukemia
  TGI: 53.9 µM
IGROV1 ovarian
  TGI: > 100 µM
SNB-75 CNS
  TGI: 73.5 µM
SN12C renal
  TGI: > 100 µM
UACC-62 melanoma
  TGI: 34.2 µM
KM12 colon
  TGI: 64.9 µM
A549 NSCLC
  TGI: 70.1 µM
TK-10 renal
  TGI: > 100 µM
MALME-3M melanoma
  TGI: > 100 µM
HT29 colon
  TGI: > 100 µM
SW-620 colon
  TGI: > 100 µM
HL-60(TB) leukemia
  TGI: 44.8 µM
HCT-15 colon
  TGI: > 100 µM
SK-MEL-5 melanoma
  TGI: 44.6 µM
OVCAR-4 ovarian
  TGI: > 100 µM
OVCAR-3 ovarian
  TGI: 71.9 µM
K-562 leukemia
  TGI: > 100 µM

## CC(C)(C)C(=O)CP(=O)(O)O
RPMI-8226 leukemia
  TGI: > 100 µM
IGROV1 ovarian
  TGI: > 100 µM
SNB-75 CNS
  TGI: > 100 µM
SN12C renal
  TGI: > 100 µM
UACC-62 melanoma
  TGI: > 100 µM
KM12 colon
  TGI: > 100 µM
LOX IMVI melanoma
  TGI: > 100 µM
A549 NSCLC
  TGI: > 100 µM
TK-10 renal
  TGI: > 100 µM
MALME-3M melanoma
  TGI: > 100 µM
HT29 colon
  TGI: > 100 µM
SW-620 colon
  TGI: > 100 µM
CCRF-CEM leukemia
  TGI: > 100 µM
HL-60(TB) leukemia
  TGI: > 100 µM
HCT-15 colon
  TGI: > 100 µM
SK-MEL-5 melanoma
  TGI: > 100 µM
OVCAR-4 ovarian
  TGI: > 100 µM
OVCAR-3 ovarian
  TGI: > 100 µM
K-562 leukemia
  TGI: > 100 µM

## C/C=C(\C)C(=O)OC1C(C)=C2C(C1OC(=O)CCCC)C(C)(OC(C)=O)CC(OC(=O)CCCC)C1(O)C2OC(=O)C1(C)O (stereo not given)
RPMI-8226 leukemia
  TGI: > 21.1 µM
IGROV1 ovarian
  TGI: > 100 µM
SNB-75 CNS
  TGI: 48.6 µM
SN12C renal
  TGI: > 100 µM
UACC-62 melanoma
  TGI: 13.2 µM
KM12 colon
  TGI: > 42.5 µM
LOX IMVI melanoma
  TGI: 2.08 µM
A549 NSCLC
  TGI: > 100 µM
TK-10 renal
  TGI: > 100 µM
HT29 colon
  TGI: 9.72 µM
CCRF-CEM leukemia
  TGI: > 100 µM
HL-60(TB) leukemia
  TGI: > 100 µM
HCT-15 colon
  TGI: > 100 µM
OVCAR-4 ovarian
  TGI: > 100 µM
OVCAR-3 ovarian
  TGI: 2.62 µM
K-562 leukemia
  TGI: > 100 µM
